Laboratory results: patent US11331299B2, “Medicinal use of serrulatane diterpenes” (The University of Sydney, priority 2016, dated 2022)
Where two headings read alike, the source gives them in different places.

System: 280 human cancer cell lines
Assay: OncoPanel cell proliferation assay (10-day)
Type: cell-based
Settings: Homo sapiens; for GI50: read-out: Cell Count GI50; for IC50: read-out: Cell Count IC50; for EC50: read-out: Cell Count EC50
[1] = KHOS-240S, Soft Tissue - Osteosarcoma
[2] = ME-180, ME-180, Female GU - Ovary
[3] = MG-63, MG-63, Soft Tissue - Osteosarcoma
[4] = MHH-PREB-1, MHH-PREB-1, Leukemia
[5] = MIA PaCa-2, Mia PaCa-2, Pancreas
[6] = MS751, MS751, Female GU - Ovary
[7] = Malme-3M, MALME3M, Skin (Melanoma)

SMILES: CC(C)=CCC[C@@H]1C(O)Oc2c(C)cc(O)c3c2[C@H]1CC[C@H]3C (some centres unmarked) [Compound 2, 5,18-epoxyserrulat-14-en-8,18-diol]
- GI50 [1]: 4.58 µM
- IC50 [1]: 4.59 µM
- EC50 (KLE, Female GU - Uterus): 26.3 µM
- GI50 (KLE, Female GU - Uterus): 20.5 µM
- IC50 (KLE, Female GU - Uterus): 26.3 µM
- EC50 (KPL-1, KPL-1, Breast): 4.7 µM
- GI50 (KPL-1, KPL-1, Breast): 4.7 µM
- IC50 (KPL-1, KPL-1, Breast): 4.73 µM
- EC50 (KU812, KU812, Leukemia): 6.52 µM
- GI50 (KU812, KU812, Leukemia): 5.66 µM
- IC50 (KU812, KU812, Leukemia): 6.52 µM
- EC50 (L-428, L-428, Lymphoma): 8.87 µM
- GI50 (L-428, L-428, Lymphoma): 8.83 µM
- IC50 (L-428, L-428, Lymphoma): 8.87 µM
- EC50 (LNCaP, Prostate): 0.86 µM
- GI50 (LNCaP, Prostate): 0.28 µM
- IC50 (LNCaP, Prostate): 0.86 µM
- EC50 (LS-123, LS123, Colon): 6.57 µM
- GI50 (LS-123, LS123, Colon): 13.4 µM
- IC50 (LS-123, LS123, Colon): 18.4 µM
- EC50 (LS-411N, LS411N, Colon): 23.9 µM
- GI50 (LS-411N, LS411N, Colon): 23.4 µM
- IC50 (LS-411N, LS411N, Colon): 23.9 µM
- EC50 (LS-1034, LS1034, Colon): 12.7 µM
- GI50 (LS-1034, LS1034, Colon): 12 µM
- IC50 (LS-1034, LS1034, Colon): 12.7 µM
- EC50 (M059J, CNS - Glioma): 9.98 µM
- GI50 (M059J, CNS - Glioma): 14.2 µM
- IC50 (M059J, CNS - Glioma): 15.8 µM
- EC50 (MC116, MC116, Lymphoma): 13.8 µM
- GI50 (MC116, MC116, Lymphoma): 13.8 µM
- IC50 (MC116, MC116, Lymphoma): 13.8 µM
- EC50 (MC-IXC, CNS - Neuroblastoma): 16.9 µM
- GI50 (MC-IXC, CNS - Neuroblastoma): 16.9 µM
- IC50 (MC-IXC, CNS - Neuroblastoma): 16.9 µM
- EC50 (MCF7, MCF7, Breast): 10.4 µM
- GI50 (MCF7, MCF7, Breast): 9.96 µM
- IC50 (MCF7, MCF7, Breast): 10.4 µM
- EC50 (MDA-MB-231, MDA MB 231, Breast): 4.39 µM
- GI50 (MDA-MB-231, MDA MB 231, Breast): 4.36 µM
- IC50 (MDA-MB-231, MDA MB 231, Breast): 4.39 µM
- EC50 (MDA-MB-436, MDA-MB-436, Breast): 9.72 µM
- GI50 (MDA-MB-436, MDA-MB-436, Breast): 9.73 µM
- IC50 (MDA-MB-436, MDA-MB-436, Breast): 9.77 µM
- EC50 (MDA-MB-453, MDA MB 453, Breast): 3.68 µM
- GI50 (MDA-MB-453, MDA MB 453, Breast): 3.65 µM
- IC50 (MDA-MB-453, MDA MB 453, Breast): 3.69 µM
- EC50 (MDA-MB-468, MDA MB 468, Breast): 8.07 µM
- GI50 (MDA-MB-468, MDA MB 468, Breast): 8 µM
- IC50 (MDA-MB-468, MDA MB 468, Breast): 8.08 µM
- EC50 [2]: > 30 µM
- GI50 [2]: > 30 µM
- IC50 [2]: > 30 µM
- EC50 (MEG-01, MEG01, Leukemia): 13.8 µM
- GI50 (MEG-01, MEG01, Leukemia): 13.7 µM
- IC50 (MEG-01, MEG01, Leukemia): 13.8 µM
- EC50 (MES-SA, Soft Tissue - Sarcoma): 9.26 µM
- GI50 (MES-SA, Soft Tissue - Sarcoma): 9.22 µM
- IC50 (MES-SA, Soft Tissue - Sarcoma): 9.26 µM
- EC50 [3]: > 30 µM
- GI50 [3]: > 30 µM
- IC50 [3]: > 30 µM
- EC50 [4]: 7.85 µM
- GI50 [4]: 7.85 µM
- IC50 [4]: 7.85 µM
- EC50 [5]: 16.3 µM
- GI50 [5]: 16.2 µM
- IC50 [5]: 16.3 µM
- EC50 (MOLT-3, MOLT-3, Leukemia): 1.27 µM
- GI50 (MOLT-3, MOLT-3, Leukemia): 1.26 µM
- IC50 (MOLT-3, MOLT-3, Leukemia): 1.27 µM
- EC50 (MOLT-16, MOLT-16, Leukemia): 13.3 µM
- GI50 (MOLT-16, MOLT-16, Leukemia): 13.3 µM
- IC50 (MOLT-16, MOLT-16, Leukemia): 13.3 µM
- EC50 [6]: 7.55 µM
- GI50 [6]: 8.72 µM
- IC50 [6]: 8.78 µM
- EC50 (MT-3, Colon): 16.9 µM
- GI50 (MT-3, Colon): 16.8 µM
- IC50 (MT-3, Colon): 16.9 µM
- EC50 (MV4-11, MV-4-11, Leukemia): 8.56 µM
- GI50 (MV4-11, MV-4-11, Leukemia): 8.52 µM
- IC50 (MV4-11, MV-4-11, Leukemia): 8.56 µM
- EC50 (MX1, Leukemia): 10.8 µM
- GI50 (MX1, Leukemia): 10.8 µM
- IC50 (MX1, Leukemia): 10.8 µM
- EC50 [7]: 19.8 µM
- GI50 [7]: 17.3 µM
- IC50 [7]: 19.8 µM
- EC50 (MeWo, Skin (Melanoma)): 9.45 µM
- GI50 (MeWo, Skin (Melanoma)): 9.91 µM
- IC50 (MeWo, Skin (Melanoma)): 9.97 µM
- EC50 (NALM-6, NALM-6, Leukemia): 1.67 µM
- GI50 (NALM-6, NALM-6, Leukemia): 1.68 µM
- IC50 (NALM-6, NALM-6, Leukemia): 1.68 µM
- EC50 (NAMALWA, Lymphoma): 5.71 µM
- GI50 (NAMALWA, Lymphoma): 5.7 µM
- IC50 (NAMALWA, Lymphoma): 5.71 µM
- EC50 (NCI-H69, NCI-H69, Lung - SCLC): 16.2 µM
- GI50 (NCI-H69, NCI-H69, Lung - SCLC): 14.9 µM
- IC50 (NCI-H69, NCI-H69, Lung - SCLC): 16.2 µM
